Experiments:
[1] = target: T1, mineralocorticoid receptor (MR) (Homo sapiens, UniProt P08235); test: MR agonist assay, MR-luciferase reporter cells; type: cell-based; conditions: 24 h incubation; 'in contrast' = unlike LEO 134310, which gave no significant activation
T1 sequence (P08235 1-984): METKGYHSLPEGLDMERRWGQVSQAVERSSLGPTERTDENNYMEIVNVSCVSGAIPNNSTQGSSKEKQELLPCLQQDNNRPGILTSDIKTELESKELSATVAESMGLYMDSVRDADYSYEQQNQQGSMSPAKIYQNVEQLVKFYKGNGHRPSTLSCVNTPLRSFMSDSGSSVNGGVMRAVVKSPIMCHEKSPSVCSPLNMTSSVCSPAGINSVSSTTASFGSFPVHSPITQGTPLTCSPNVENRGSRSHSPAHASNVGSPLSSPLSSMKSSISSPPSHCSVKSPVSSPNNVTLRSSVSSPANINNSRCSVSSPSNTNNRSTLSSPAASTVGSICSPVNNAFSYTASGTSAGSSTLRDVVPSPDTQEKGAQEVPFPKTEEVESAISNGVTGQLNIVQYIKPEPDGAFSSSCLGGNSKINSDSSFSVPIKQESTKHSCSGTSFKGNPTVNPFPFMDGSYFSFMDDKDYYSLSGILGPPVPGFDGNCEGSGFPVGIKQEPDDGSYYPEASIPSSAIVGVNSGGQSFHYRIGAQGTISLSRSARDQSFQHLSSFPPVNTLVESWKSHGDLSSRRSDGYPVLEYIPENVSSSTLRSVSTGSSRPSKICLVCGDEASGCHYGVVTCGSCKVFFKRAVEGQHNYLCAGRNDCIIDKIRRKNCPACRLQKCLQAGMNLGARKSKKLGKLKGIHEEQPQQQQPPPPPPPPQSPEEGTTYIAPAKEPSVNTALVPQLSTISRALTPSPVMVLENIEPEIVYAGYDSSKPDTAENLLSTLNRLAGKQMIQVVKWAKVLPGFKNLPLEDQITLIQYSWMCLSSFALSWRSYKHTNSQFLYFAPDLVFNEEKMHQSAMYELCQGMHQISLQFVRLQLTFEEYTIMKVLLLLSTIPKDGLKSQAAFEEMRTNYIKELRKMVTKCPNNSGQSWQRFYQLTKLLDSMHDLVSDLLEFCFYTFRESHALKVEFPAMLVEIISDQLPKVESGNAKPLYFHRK
Description: Assays were performed at Indigo Biosciences according to standard protocols. In brief, MR-luciferase reporter cells were incubated with medium containing charcoal-stripped fetal bovine serum and incubated with test and reference compounds for 24 h before measuring luminescence. Data were fitted by the means of four parameter logistic regression.

GR = target: T2, GR (Homo sapiens, UniProt P04150); test: Transactivation assay, MMTV promoter luciferase in HeLa cells; type: cell-based; parameters: endogenous in cells; host or cells: HeLa (ATCC) stably expressing MMP1- or MMTV-promoter luciferase; conditions: for EC50: 20 h, geometric mean
T2 sequence (P04150 1-777): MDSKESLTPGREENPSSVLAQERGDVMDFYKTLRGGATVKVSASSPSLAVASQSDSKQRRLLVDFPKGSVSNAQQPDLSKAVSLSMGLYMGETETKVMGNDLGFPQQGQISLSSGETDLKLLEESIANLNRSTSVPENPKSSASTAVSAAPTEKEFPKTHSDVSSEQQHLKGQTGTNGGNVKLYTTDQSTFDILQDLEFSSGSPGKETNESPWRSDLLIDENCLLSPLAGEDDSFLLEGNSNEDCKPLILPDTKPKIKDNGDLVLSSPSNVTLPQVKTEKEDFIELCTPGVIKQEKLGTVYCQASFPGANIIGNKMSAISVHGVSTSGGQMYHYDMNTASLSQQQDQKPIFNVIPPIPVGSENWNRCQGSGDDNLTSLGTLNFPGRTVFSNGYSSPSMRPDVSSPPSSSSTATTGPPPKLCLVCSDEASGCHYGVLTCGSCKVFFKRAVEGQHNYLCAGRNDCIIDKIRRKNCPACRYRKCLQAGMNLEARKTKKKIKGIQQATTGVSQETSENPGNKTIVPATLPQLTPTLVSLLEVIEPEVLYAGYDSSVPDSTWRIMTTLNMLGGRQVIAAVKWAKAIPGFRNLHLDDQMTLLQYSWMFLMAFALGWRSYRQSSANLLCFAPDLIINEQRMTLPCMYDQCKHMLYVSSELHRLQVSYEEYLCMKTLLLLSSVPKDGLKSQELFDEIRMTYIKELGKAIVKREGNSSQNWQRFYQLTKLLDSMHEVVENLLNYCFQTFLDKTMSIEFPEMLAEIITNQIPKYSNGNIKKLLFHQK
Description: A HeLa cell line stably expressing luciferase under the control of the mouse mammary tumour virus (MMTV) promoter was generated. When the GR is activated by addition of a GR agonist, it forms a homodimer and binds to the MMTV promoter, t inducing transcription of the luciferase reporter gene. Briefly, cells were incubated with test compounds in culture medium containing charcoal-filtered fetal bovine serum for 20 h 37 °C 5% CO2. Finally, luciferase activity was detected luminometrically after addition of specific substrate to the cells.
IC50 of test compounds was determined by 10-point titrations in duplicates. IC50 values and other parameters were calculated by sigmoidal curve fitting in Assay Explorer.

Row | SMILES | Activation of MR (luciferase activity) [1] | Emax (GR; MMTV promoter, HeLa cells) | EC50 (GR; MMTV promoter, HeLa cells) | Transactivation Emax (GR; MMTV promoter, HeLa cells) | Transactivation EC50 relative to concentration needed for transrepression (GR; higher concentration than needed for transrepression)
1 | CCCCC(=O)O[C@]1(C(=O)CO)[C@@H](C)C[C@H]2[C@@H]3CCC4=CC(=O)C=C[C@]4(C)[C@@]3(F)[C@@H](O)C[C@@]21C [BMV, Betamethasone Valerate] | in contrast | 120% | 2.6 nM | – | –
2 | CCC(=O)O[C@]1(C(=O)CCl)[C@@H](C)C[C@H]2[C@@H]3CCC4=CC(=O)C=C[C@]4(C)[C@@]3(F)[C@@H](O)C[C@@]21C [CP, Clobetasol Propionate] | in contrast | 110% | 0.25 nM | – | –
3 | C[C@H](NC(=O)[C@H]1CCCO1)[C@H](Oc1ccc(C(=O)O[C@H]2CCCN(C(=O)[C@H]3COC(=O)C3)C2)cc1)c1ccc(C2CC2)cc1 [LEO 134310] | No significant activation of MR | – | 410 nM | 95% | more than 300 fold

Source: article PMC8795149, “Characterization of a novel non-steroidal glucocorticoid receptor agonist optimized for topical treatment” (Scientific Reports, 2022)
